ChEMBL document CHEMBL3813697, “Design, synthesis, and anticancer activity of C8-substituted-4'-thionucleosides as potential HSP90 inhibitors” (Bioorg Med Chem, 2016)
The source made the active and inactive calls. The calls are words filed in the database; no cut-off is given here.

How the values were obtained:
[1] = molecular target: Heat shock protein HSP90 (Homo sapiens) (UniProt P07900+P08238); experiment: Competitive inhibition of recombinant HSP90 (unknown origin) at 100 uM measured after 3 hrs using FITC-labeled geldanamycin by fluorescence polarization assay
[2] = Anticancer activity against human HCT116 cells measured after 72 hrs by SRB assay; type: functional, cell-based; settings: HCT-116, 72 h
[3] = tested on: A549; experiment: Anticancer activity against human A549 cells measured after 72 hrs by SRB assay; type: functional, cell-based; settings: A549, 72 h
[4] = Anticancer activity against human Caki1 cells measured after 72 hrs by SRB assay; type: functional, cell-based; settings: CAKI-1, 72 h
[5] = tested on: MDA-MB-231; experiment: Anticancer activity against human MDA-MB-231 cells measured after 72 hrs by SRB assay; type: functional, cell-based; settings: MDA-MB-231, 72 h
[6] = Anticancer activity against human SNU638 cells measured after 72 hrs by SRB assay; type: functional, cell-based; settings: SNU-638, 72 h

Structure (SMILES) | inhibition [1] | further results
Nc1ncnc2c1nc(NCc1ccccc1)n2[C@@H]1SC[C@@H](O)[C@H]1O | inactive | –
Nc1ncnc2c1nc(-c1ccco1)n2[C@@H]1S[C@H](CO)[C@@H](O)[C@H]1O | inactive | –
Nc1ncnc2c1nc(-c1ccccc1)n2[C@@H]1S[C@H](CO)[C@@H](O)[C@H]1O | inactive | –
CNc1ncnc2c1nc(-c1ccco1)n2[C@@H]1SC[C@@H](O)[C@H]1O | inactive | –
Nc1ncnc2c1nc(-c1ccco1)n2[C@@H]1SC[C@@H](O)[C@H]1O | inactive | –
Nc1ncnc2c1nc(N1CCCCC1)n2[C@@H]1SC[C@@H](O)[C@H]1O | inactive | –
Nc1ncnc2c1nc(N1CCCCC1)n2[C@@H]1S[C@H](CO)[C@@H](O)[C@H]1O | inactive | –
[N-]=[N+]=Nc1nc2c(Cl)ncnc2n1[C@@H]1SC[C@@H](O)[C@H]1O | inactive | –
CNc1nc2c(N)ncnc2n1[C@@H]1SC[C@@H](O)[C@H]1O | inactive | –
O[C@@H]1[C@H](O)CS[C@H]1n1c(-c2cccs2)nc2c(Cl)ncnc21 | inactive | –
Nc1ncnc2c1nc(-c1cccs1)n2[C@@H]1SC[C@@H](O)[C@H]1O | inactive | –
CNc1nc2c(N)ncnc2n1[C@@H]1S[C@H](CO)[C@@H](O)[C@H]1O | inactive | –
O[C@@H]1[C@H](O)CS[C@H]1n1c(-c2ccco2)nc2c(Cl)ncnc21 | inactive | –
Nc1ncnc2c1nc(-c1cccs1)n2[C@@H]1S[C@H](CO)[C@@H](O)[C@H]1O | inactive | –
Nc1ncnc2c1nc(I)n2[C@@H]1SC[C@@H](O)[C@H]1O | 11% | –
CNc1ncnc2c1nc(-c1cccs1)n2[C@@H]1SC[C@@H](O)[C@H]1O | inactive | –
COC1=C2C[C@@H](C)C[C@H](OC)[C@H](O)[C@@H](C)/C=C(\C)[C@H](OC(N)=O)[C@@H](OC)/C=C\C=C(/C)C(=O)NC(=CC1=O)C2=O [GELDANAMYCIN] | – | IC50 [2]: 150 nM; IC50 [3]: 109 nM; IC50 [4]: 56 nM; IC50 [5]: 110 nM; IC50 [6]: 30 nM
CCCNc1nc2c(N)ncnc2n1[C@@H]1SC[C@@H](O)[C@H]1O | inactive | –
[N-]=[N+]=Nc1nc2c(N)ncnc2n1[C@@H]1S[C@H](CO)[C@@H](O)[C@H]1O | inactive | –
[N-]=[N+]=Nc1nc2c(N)ncnc2n1[C@@H]1SC[C@@H](O)[C@H]1O | inactive | –
Nc1ncnc2c1nc(NCc1ccc3c(c1)OCO3)n2[C@@H]1SC[C@@H](O)[C@H]1O | inactive | IC50 [2]: > 100000 nM; IC50 [3]: > 100000 nM; IC50 [4]: > 100000 nM; IC50 [5]: > 100000 nM; IC50 [6]: > 100000 nM
CCCNc1nc2c(N)ncnc2n1[C@@H]1S[C@H](CO)[C@@H](O)[C@H]1O | inactive | –
